The record followed here is patent US9115145B2, “Tocotrienol derivatives and associated methods” (FIRST TECH INTERNATIONAL LIMITED, priority 2011, dated 2015).

The test system of experiment [1] is MDA-MB-231 human breast cancer cells. The experiment can be described thus: Wound-healing assay (cell migration). The following applies: Homo sapiens; for inhibition at 5 µM: MDA-MB-231, 24 h, wound-healing assay; for IC50: MDA-MB-231, wound-healing assay, dose response, read-out: IC50 antimigratory activity. The experiment is classed as cell-based. Here is the method:
The highly metastatic human breast cancer MDA-MB-231 cells were cultured in RPMI 1640 medium containing 10 mM HEPES, 4 mM L-glutamine, 10% fetal bovine serum, penicillin (100 IU/mL), and streptomycin (50 μg/mL), and grown in a 5% CO2 atmosphere at 37° C. Cells were plated onto sterile 24-well and allowed to recover for a confluent cell monolayer formed in each well (>95% confluence). Wounds were then inflicted to each cell monolayer using a sterile 200 μL pipette tip. Media were removed, cells monolayers were washed twice with PBS, and then fresh media containing test compounds were added to each well. Test compounds were prepared in DMSO at 5 μM concentration and added to the plates, each in triplicate using DMSO as negative control. The incubation was carried out for 24 h under serum-starved conditions, after which media was removed and cells were fixed and stained using a staining composition sold under the trade name Diff Quick (Dade Behring Diagnostics, Aguada, Puerto Rico). The stain comprised a fixative reagent containing 1.8 mg/L triarylmethane dye in methyl alcohol; a first solution of 1 g/L xanthene dye, buffer, and sodium azide (0.01%) as preservative; and a second solution of 1.25 g/L Thiazine dye mixture (0.625 g/L azure A and 0.625 g/L methylene blue) and buffer. The number of cells migrated on the scratched wound were counted under the microscope in three or more randomly selected fields (magnification: 400×). Final results are expressed as mean±SEM per 400× field. The wound-healing assay is a simple method for the study of directional cell migration in vitro.
Compounds were tested for their ability to inhibit the migration of the highly metastatic MDA-MB-231 human breast cancer cells in the wound-healing assay using the procedure described above. Compounds 6, 10, 12, 13, 24, 26, 27, and 29 inhibited the migration of more than 50% of the human breast cancer cells MDA-MB-231 in the wound healing assay at 5 μM dose. […] The antimigratory activity of tocotrienols may be enhanced by a terminal aromatic functionality. The presence of electron withdrawing group, such as nitro in Compound 29, may eliminate the antiproliferative activity yet retain the antimigratory activity of the compound. While the electron donating groups, such as OH and OMe found in Compounds 23 and 26, respectively, retained both antiproliferative and antimigratory activities.
Utilizing similar procedures follow-up testing was conducted on a variety of compounds using a range of compound concentrations. The results of follow-up antimigratory testing are shown in FIG. 35B and Table III below with IC50 values calculated using statistical software.

In experiment [2] the test system is +SA mammary epithelial cells. Briefly: MTT assay of +SA cells (antiproliferative activity). The experiment is classed as cell-based, mouse. The following applies: for antiproliferative activity against +SA mammary tumor cells (in words): described from FIG. 32 / text. Here is the method:
The antiproliferative activities of Compounds 3-44 against the highly metastatic malignant +SA mammary epithelial cells were evaluated by MTT assay. Materials for the assay were purchased from Sigma Chemical Company (St. Louis, Mo.) unless otherwise stated. The highly malignant +SA mouse mammary epithelial cell line was serially passaged at subconfluent cell density. The +SA mammary tumor cell line was derived from an adenocarcinoma that developed spontaneously in a BALB/c female mouse. +SA cells were maintained in serum-free defined medium consisting of Dulbecco's modified Eagle's medium (DMEM)/F12 containing 5 mg/mL bovine serum albumin (BSA), 10 […], 100 U/mL soybean trypsin inhibitor, 100 U/mL penicillin G, 0.1 mg/mL streptomycin, […], and 10 ng/mL epidermal growth factor. For subculturing, cells were rinsed twice with sterile Ca2+ and Mg2+-free phosphate buffered saline (PBS) and incubated in 0.05% trypsin containing 0.025% EDTA in PBS for 5 min at 37° C. The released cells were centrifuged, resuspended in fresh media and counted using hemocytometer. A stock solution of the compounds was prepared in DMSO. Once dissolved, this solution was added to a small volume of sterile 10% BSA in water and incubated overnight at 37° C. This solution conjugated to BSA was used to prepare various concentrations (0-40 μM) of tocotrienol analogs. DMSO was added to all treatment media such that the final DMSO concentration was the same in all treatment groups within a given experiment and was always less than 0.1%. For cytotoxic studies, cells were seeded at a density of 5×10^4 cells/well (+SA cells) or 1×10^5 cells/well (CL-S1 cells) (6 wells/group) in 24-well culture plates and allowed to grow in their respective control media. After 3 days incubation period (approximately 70% confluency), cells were divided equally into various treatment groups and exposed to their respective treatments for a 24 hours incubation period. Following the 24 hours treatment period, cell viability was measured using the MTT assay.
+SA Mammary epithelial cell viable number was determined by a 3-(4,5-dimethylthiazol-2yl)-2,5-diphenyl tetrazolium bromide (MTT) colorimetric assay. On the assay day, treatment medium was replaced with fresh control medium containing 0.42 mg/mL MTT, and the cells in 24-well plates were incubated at 37° C. for 4 hours. Afterward, the medium was removed, and the MTT crystals were dissolved in isopropyl alcohol (1 mL/well). The optical density of each sample was read at 570 nm on a microplate reader (SpectraCount, Packard BioScience Company), against a blank prepared from cell-free cultures. The number of cells/well was calculated against a standard curve prepared by plating various concentrations of cells, as determined by hemocytometer, at the start of each experiment.
Differences among the various treatment groups in +SA cell cytotoxic studies were determined by analysis of variance (ANOVA) followed by Dunnett's t-test. The difference of P<0.05 was considered to be statistically significant as compared with vehicle-treated controls unless separately described. Linear regression analysis of treatment effects on viable cell number in growth and cytotoxicity studies was used to determine the 50% growth inhibition concentration (IC50) for individual treatments.

The subject of experiment [3] is MDA-MB-231 human breast cancer cell line. The experiment can be described thus: MTT assay of MDA-MB-231 cells. The experiment is classed as cell-based. Particulars: Homo sapiens, media containing 5% fetal bovine serum. Here is the method: (§1) MDA-MB-231 and MCF7 cells were plated at a density of 8×10^3 cells/well and 10^4 cells/well in 96-well culture plates, respectively. The compounds were fed in serum free media containing 5% and 1% fetal bovine serum for MDA-MB-231 and MCF7 cells, respectively.

Experiment [4] relates to MCF 10A non-tumorigenic mammary epithelial cells. The experiment can be described thus: MTT assay of MCF10A cells. In kind it is cell-based, human. The following applies: for IC50: Homo sapiens; for Selectivity index: IC50 for MCF 10A divided by IC50 for +SA cell line. On the procedure:
MCF 10A (ATCC cat # CRL-10317) normal human non-tumorigenic mammary epithelial cells were maintained in serum-free defined medium consisting of Dulbecco's modified Eagle's medium (DMEM)/F12 containing 5% horse serum, 1% penicillin/streptomycin, 0.5 μg/mL hydrocortisone, 100 ng/mL cholera toxin, 10 μg/mL insulin, and 20 ng/mL epidermal growth factor (rhEGF). For subculturing, cells were rinsed twice with sterile Ca2+ and Mg2+-free phosphate buffered saline (PBS) and incubated in 0.25% trypsin containing 0.025% EDTA in PBS for 5 min at 37° C. The released cells were centrifuged, re-suspended in fresh media and counted using a hemocytometer. For testing, MCF 10A cells were plated at a density of 10×10^4 cells/well. A stock solution of the compounds was prepared in DMSO. DMSO was added to all treatment media such that the final DMSO concentration was the same in all treatment groups within a given experiment and was always less than 0.1%. The compounds were fed in serum free media. MCF10A mammary epithelial cell's viable number was determined by MTT colorimetric assay. […] IC50 values were calculated by non-linear regression using statistical software. The selectivity index indicated in the table represents the IC50 value for the MCF 10A cell line divided by the IC50 value for the +SA cell line.

For experiment [5], the system named is MCF7 human breast cancer cell line. Briefly: MTT assay of MCF7 cells. In kind it is cell-based. Particulars: Homo sapiens, media containing 1% fetal bovine serum. On the procedure:
as §1

In experiment [6] the test system is 60 human tumor cell lines. Briefly: NCI in vitro screening against 60 human cell lines, single concentration. In kind it is cell-based. Particulars: 10 μM dose; negative values indicate cytotoxicity. On the procedure:
Compounds selected from Compounds 3-44 were provided to the National Cancer Institute for in vitro screening against 60-human cell lines for their ability to inhibit the growth of tumor cells in a full panel representing nine different organs (blood, lung, colon, CNS, skin, ovary, kidney, prostate, and breast). The compounds were tested at a single concentration of 10 μM, and the percentages of growth inhibitions over the sixty tested cell lines were determined. Compounds showing the highest activity were chosen for secondary assays using five different compound concentrations.
The human tumor cell lines of the cancer screening panel were grown in RPMI 1640 medium containing 5% fetal bovine serum and 2 mM L-glutamine. For a typical screening experiment, cells are inoculated into 96 well microtiter plates in 100 μL at plating densities ranging from 5000 to 40,000 cells/well depending on the doubling time of individual cell lines. After cell inoculation, the microtiter plates are incubated at 37° C., 5% CO2, 95% air and 100% relative humidity for 24 hours prior to addition of experimental drugs. After 24 hours, two plates of each cell line are fixed in situ with Trichloroacetic acid (“TCA”), to represent a measurement of the cell population for each cell line at the time of drug addition. Experimental drugs are solubilized in dimethyl sulfoxide at 400-fold the desired final maximum test concentration and stored frozen prior to use. At the time of drug addition, an aliquot of frozen concentrate is thawed and diluted to twice the desired final maximum test concentration with complete medium containing 50 ng/mL gentamicin. An aliquot of 100 μL of this drug dilution is added to the appropriate microtiter wells already containing 100 μL of medium, resulting in the required final drug concentrations. Following drug addition, the plates are incubated for an additional 48 h at 37° C., 5% CO2, 95% air, and 100% relative humidity. For adherent cells, the assay is terminated by the addition of cold TCA. Cells are fixed in situ by the gentle addition of 50 μL of cold 50% (w/v) TCA (final concentration, 10% TCA) and incubated for 60 min at 4° C. The supernatant is discarded, and the plates are washed five times with tap water and air dried. Sulforhodamine B (SRB) solution (100 μL) at 0.4% (w/v) in 1% acetic acid is added to each well, and plates are incubated for 10 min at room temperature. After staining, unbound dye is removed by washing five times with 1% acetic acid and the plates are air dried. Bound stain is subsequently solubilized with 10 mM trizma base, and the absorbance is read on an automated plate reader at a wavelength of 515 nm. For suspension cells, the methodology is the same except that the assay is terminated by fixing settled cells at the bottom of the wells by gently adding 50 μL of 80% TCA (final concentration, 16% TCA). FIGS. 37-74 indicate the growth inhibition effects of selected Compounds against a variety of cell lines based on the above described testing configuration. FIGS. 37-74 present the Growth percent for a given compound against the cell lines and both values and a bar chart of the difference between the mean growth percent and the growth percent which is an indication of the selectivity of the compound for that particular cell line.

[7] abbreviates: MCF-10A, MCF10A cells, Table II, non-linear regression, read-out: MCF10A (IC50).
[8] abbreviates: MCF 10A non-tumorigenic cells, Table I, read-out: IC50 MCF 10A.

Read-outs that look alike come from different tables or passages of the source.

The inhibition is the percentage by which the read-out fell short of the control. Low readings indicate a response near the control, high ones a response far below the control. The term IC50 denotes the concentration that inhibits the measured activity by half. Regarding `CC(C)=CCC/C(C)=C/CC/C(C)=C/CC[C@]1(C)CCc2c3c(c(C)c(C)c2O1)OCN(CCc1ccc(O)cc1)C3` [Compound 26, 4-(2-((R)-5,6,8-trimethyl-8-((3E,7E)-4,8,12-trimethyltrideca-3,7,11-trienyl)-9,10-dihydrochromeno[5,6-e][1,3]oxazin-2(1H,3H,8H)-yl)ethyl)phenol], the inhibition at 5 µM in experiment [1] is more than 50%. For the same compound, the IC50 in experiment [1] was 4.5 µM; in experiment [3], more than 5 µM; in experiment [4] (setting [7]) it was 8.5 µM; in experiment [4] (setting [8]) it was 8.5 µM; in experiment [5], 10.6 µM. In addition, the “antiproliferative activity against +SA mammary tumor cells (in words)” value in experiment [2] is “very high activities”. Moreover, the Selectivity index in experiment [4] worked out at 5.67.

Regarding `CC(C)=CCC/C(C)=C/CC/C(C)=C/CC[C@]1(C)CCc2c3c(cc(C)c2O1)OCN(CCCCO)C3` [Compound 36, 4-((R)-6,8-dimethyl-8-((3E,7E)-4,8,12-trimethyltrideca-3,7,11-trienyl)-9,10-dihydrochromeno[5,6-e][1,3]oxazin-2(1H,3H,8H)-yl)butan-1-ol], the “mean percent growth across all 60 cell lines (mean 60)” value in experiment [6] was “negative”. Further, the IC50 in experiment [1] is 2.2 µM; in experiment [3], more than 5 µM; in experiment [4] (setting [7]), 4.2 µM; in experiment [4] (setting [8]), 4.2 µM; in experiment [5] it was 16.3 µM. The same compound showed a Selectivity index in experiment [4] of 2.34.

For `CC(C)=CCC/C(C)=C/CC/C(C)=C/CC[C@]1(C)CCc2c3c(c(C)c(C)c2O1)OCN(Cc1ccccc1)C3` [Compound 6, (R)-2-benzyl-5,6,8-trimethyl-8-((3E,7E)-4,8,12-trimethyltrideca-3,7,11-trienyl)-1,2,3,8,9,10-hexahydrochromeno[5,6-e][1,3]oxazine], the inhibition at 5 µM in experiment [1] is more than 50%. Besides, the IC50 in experiment [2] (Mus musculus, +SA cell, 24 hours treatment, read-out: IC50 antiproliferative activity against +SA mammary epithelial cells) was 1.2 to 2.2 µM; in experiment [3], 27.3 µM; in experiment [5], more than 20 µM. For the same compound, the “antiproliferative activity against +SA mammary tumor cells (in words)” value in experiment [2] is “inactive”.

`CC(C)=CCC/C(C)=C/CC/C(C)=C/CC[C@]1(C)CCc2c3c(cc(C)c2O1)OCN(CCCO)C3` [Compound 13, 3-((R)-6,8-dimethyl-8-((3E,7E)-4,8,12-trimethyltrideca-3,7,11-trienyl)-9,10-dihydrochromeno[5,6-e][1,3]oxazin-2(1H,3H,8H)-yl)propan-1-ol]: the “mean percent growth across all 60 cell lines (mean 60)” value in experiment [6] is recorded as “negative”. Moreover, the inhibition at 5 µM in experiment [1] is more than 50%. Besides, the IC50 in experiment [1] is 6 µM; in experiment [3], more than 10 µM; in experiment [4] (setting [7]), 6.5 µM; in experiment [4] (setting [8]), 6.5 µM; in experiment [5], more than 20 µM. In experiment [4], this compound returned a Selectivity index of 3.61.
